Measurements: PubChem BioAssay AID248 (DTP/NCI, 2004)
Values joined by “and” are separate entries in the source; they are usually repeats but may differ in a detail not shown here. Equal values may be shown once. Toxic doses and inconclusive results are not listed.

Test system: L1210 leukemia ip in BDF1 mice, survival T/C
Assay: NCI In Vivo Anticancer Drug Screen. Data for tumor model L1210 Leukemia (intraperitoneal) in B6D2F1 (BDF1) mice
Settings: endpoint: mean survival time, higher = longer survival
Method in brief: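 Tumor cells were implanted, animals were treated, and survival was followed. The result divides the treated measurement by the vehicle-control measurement.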

[1] = dose: 100.0 mg/kg/injection, schedule: Q04DX003 (ip), vehicle: Klucel (hydroxypropylcellulose) (HPC)
[2] = dose: 200.0 mg/kg/injection, schedule: Q04DX003 (ip), vehicle: Klucel (hydroxypropylcellulose) (HPC)
[3] = dose: 400.0 mg/kg/injection, schedule: Q04DX003 (ip), vehicle: Klucel (hydroxypropylcellulose) (HPC)
[4] = dose: 50.0 mg/kg/injection, schedule: Q01DX009 (ip), vehicle: Klucel (hydroxypropylcellulose) (HPC)
[5] = dose: 100.0 mg/kg/injection, schedule: Q01DX009 (ip), vehicle: Klucel (hydroxypropylcellulose) (HPC)
[6] = dose: 50.0 mg/kg/injection, schedule: Q01DX001 (ip), vehicle: carboxymethylcellulose (CMC)
[7] = dose: 100.0 mg/kg/injection, schedule: Q01DX001 (ip), vehicle: carboxymethylcellulose (CMC)
[8] = dose: 100.0 mg/kg/injection, schedule: Q01DX001 (ip), vehicle: saline with Tween-80
[9] = dose: 200.0 mg/kg/injection, schedule: Q01DX001 (ip), vehicle: saline with Tween-80
[10] = dose: 100.0 mg/kg/injection, schedule: Q04DX003 (ip), vehicle: saline with Tween-80
[11] = dose: 100.0 mg/kg/injection, schedule: Q04DX003 (ip), vehicle: acetone
[12] = dose: 200.0 mg/kg/injection, schedule: Q04DX003 (ip), vehicle: acetone
[13] = dose: 400.0 mg/kg/injection, schedule: Q04DX003 (ip), vehicle: acetone
[14] = dose: 200.0 mg/kg/injection, schedule: Q01DX009 (ip), vehicle: Klucel (hydroxypropylcellulose) (HPC)
[15] = dose: 400.0 mg/kg/injection, schedule: Q01DX009 (ip), vehicle: Klucel (hydroxypropylcellulose) (HPC)

C/C(=C\n1ccccc1=N)C(=O)c1ccc(F)cc1
T/C [1]: 96 % of control | T/C [2]: 98 % of control | T/C [3]: 100 % of control

NC1=NC(CCc2ccccc2)N(c2ccc(Cl)cc2)C(N)=N1 (stereo unspecified)
T/C (dose: 14.0 mg/kg/injection, schedule: Q01DX009 (ip), vehicle: steriod suspending solution): 98 % of control | T/C (dose: 24.0 mg/kg/injection, schedule: Q01DX009 (ip), vehicle: steriod suspending solution): 97 % of control | T/C (dose: 39.0 mg/kg/injection, schedule: Q01DX009 (ip), vehicle: steriod suspending solution): 100 % of control | T/C (dose: 65.0 mg/kg/injection, schedule: Q01DX009 (ip), vehicle: steriod suspending solution): 100 % of control

Nc1nc(N)c2nc(CO)cnc2n1
T/C (dose: 12.5 mg/kg/injection, schedule: Q01DX009 (ip), vehicle: Klucel (hydroxypropylcellulose) (HPC)): 98 % of control | T/C (dose: 25.0 mg/kg/injection, schedule: Q01DX009 (ip), vehicle: Klucel (hydroxypropylcellulose) (HPC)): 102 % of control | T/C [4]: 101 % of control and 105 % of control | T/C [5]: 101 % of control

Cc1cccc(NC(=O)N(CCCl)N=O)c1
T/C (dose: 2.6 mg/kg/injection, schedule: Q01DX009 (ip), vehicle: carboxymethylcellulose (CMC)): 163 % of control | T/C (dose: 4.0 mg/kg/injection, schedule: Q01DX009 (ip), vehicle: carboxymethylcellulose (CMC)): 164 % of control and 197 % of control | T/C (dose: 6.0 mg/kg/injection, schedule: Q01DX009 (ip), vehicle: carboxymethylcellulose (CMC)): 150 % of control and 192 % of control | T/C (dose: 25.0 mg/kg/injection, schedule: Q01DX001 (ip), vehicle: carboxymethylcellulose (CMC)): 101 % of control | T/C [6]: 86 % of control | T/C [7]: 86 % of control

COC1C(O)C(CO)OC1n1cnc2c(=S)nc[nH]c21 (stereo unspecified)
T/C [6]: 102 % of control | T/C (dose: 88.8 mg/kg/injection, schedule: Q01DX001 (ip), vehicle: carboxymethylcellulose (CMC)): 102 % of control and 112 % of control | T/C [7]: 102 % of control | T/C (dose: 133.0 mg/kg/injection, schedule: Q01DX001 (ip), vehicle: carboxymethylcellulose (CMC)): 110 % of control and 116 % of control | T/C (dose: 200.0 mg/kg/injection, schedule: Q01DX001 (ip), vehicle: carboxymethylcellulose (CMC)): 110 % of control and 116 % of control | T/C (dose: 300.0 mg/kg/injection, schedule: Q01DX001 (ip), vehicle: carboxymethylcellulose (CMC)): 102 % of control and 116 % of control | T/C (dose: 400.0 mg/kg/injection, schedule: Q01DX001 (ip), vehicle: carboxymethylcellulose (CMC)): 102 % of control

C=CCc1ccc(O)c(OC)c1
T/C (dose: 100.0 mg/kg/injection, schedule: Q04DX002 (ip), vehicle: saline + alcohol): 108 % of control | T/C (dose: 200.0 mg/kg/injection, schedule: Q04DX002 (ip), vehicle: saline + alcohol): 101 % of control | T/C (dose: 400.0 mg/kg/injection, schedule: Q04DX002 (ip), vehicle: saline + alcohol): 97 % of control

O=S(=O)(CBr)/C(Br)=C/c1ccccc1
T/C (dose: 50.0 mg/kg/injection, schedule: Q04DX002 (ip), vehicle: Klucel (hydroxypropylcellulose) (HPC)): 97 % of control | T/C (dose: 100.0 mg/kg/injection, schedule: Q04DX002 (ip), vehicle: Klucel (hydroxypropylcellulose) (HPC)): 94 % of control | T/C (dose: 200.0 mg/kg/injection, schedule: Q04DX002 (ip), vehicle: Klucel (hydroxypropylcellulose) (HPC)): 103 % of control

COC1C=CC=CC=C1
T/C (dose: 15.0 mg/kg/injection, schedule: Q01DX009 (ip), vehicle: saline with Tween-80): 108 % of control | T/C (dose: 30.0 mg/kg/injection, schedule: Q01DX009 (ip), vehicle: saline with Tween-80): 113 % of control | T/C (dose: 60.0 mg/kg/injection, schedule: Q01DX009 (ip), vehicle: saline with Tween-80): 103 % of control

N#CCCOP(=O)(O)O
T/C (dose: 100.0 mg/kg/injection, schedule: Q01DX001 (ip), vehicle: Klucel (hydroxypropylcellulose) (HPC)): 101 % of control | T/C (dose: 200.0 mg/kg/injection, schedule: Q01DX001 (ip), vehicle: Klucel (hydroxypropylcellulose) (HPC)): 98 % of control | T/C (dose: 400.0 mg/kg/injection, schedule: Q01DX001 (ip), vehicle: Klucel (hydroxypropylcellulose) (HPC)): 88 % of control

O=C(OCCc1ccccc1)Oc1ccccc1
T/C (dose: 100.0 mg/kg/injection, schedule: Q01DX009 (ip), vehicle: saline): 115 % of control | T/C (dose: 200.0 mg/kg/injection, schedule: Q01DX009 (ip), vehicle: saline): 110 % of control | T/C (dose: 400.0 mg/kg/injection, schedule: Q01DX009 (ip), vehicle: saline): 103 % of control

O=C1C2C=CC=CC1C1C=CC2C1
T/C [8]: 93 % of control | T/C [9]: 104 % of control | T/C (dose: 400.0 mg/kg/injection, schedule: Q01DX001 (ip), vehicle: saline with Tween-80): 101 % of control

N#Cc1cn(C2CCCCC2)c2ncccc12
T/C (dose: 25.0 mg/kg/injection, schedule: Q04DX003 (ip), vehicle: saline with Tween-80): 90 % of control | T/C (dose: 50.0 mg/kg/injection, schedule: Q04DX003 (ip), vehicle: saline with Tween-80): 97 % of control | T/C [10]: 93 % of control

O=C(N/N=C/c1ccc2c(c1)CCC2)c1cccc(O)c1
T/C [1]: 96 % of control | T/C [2]: 95 % of control | T/C [3]: 91 % of control

COc1cc(N)ccn1
T/C [11]: 95 % of control | T/C [12]: 94 % of control | T/C [13]: 94 % of control

[Cl][Hg][Cl].c1ccc(N=P(c2ccccc2)(c2ccccc2)c2ccccc2)cc1
T/C (dose: 9.38 mg/kg/injection, schedule: Q01DX001 (ip), vehicle: other): 96 % of control | T/C (dose: 18.75 mg/kg/injection, schedule: Q01DX001 (ip), vehicle: other): 102 % of control

COc1ccc(-c2c(COC(C)=O)c(COC(C)=O)c3n2CCC3)cc1
T/C [4]: 113 % of control

CCCN(CCC)c1ccc(N=Nc2cc(Cl)ccc2Cl)cc1
T/C [10]: 91 % of control | T/C (dose: 200.0 mg/kg/injection, schedule: Q04DX003 (ip), vehicle: saline with Tween-80): 93 % of control | T/C (dose: 400.0 mg/kg/injection, schedule: Q04DX003 (ip), vehicle: saline with Tween-80): 91 % of control

CC1CCC2(C(=O)O)CCC3(C)C(=CCC4C5(C)CC(O)C(O)C(C)(C(=O)O)C5CCC43C)C2C1(C)O (stereo unspecified)
T/C (dose: 100.0 mg/kg/injection, schedule: Q01DX001 (ip), vehicle: alkali diluted with saline): 94 % of control | T/C [8]: 97 % of control | T/C (dose: 200.0 mg/kg/injection, schedule: Q01DX001 (ip), vehicle: alkali diluted with saline): 100 % of control | T/C [9]: 89 % of control

O=C1C=CC(=O)N1Nc1ccccc1
T/C [1]: 100 % of control | T/C [2]: 102 % of control | T/C [3]: 97 % of control

O=C(NCCCl)NC1c2ccccc2-c2ccccc21
T/C [5]: 105 % of control | T/C [1]: 96 % of control and 89 % of control | T/C [14]: 92 % of control | T/C [2]: 102 % of control | T/C [15]: 106 % of control | T/C [3]: 98 % of control and 86 % of control

OCC[CH2][Pb]([c]1ccccc1)([c]1ccccc1)[c]1ccccc1
T/C (dose: 3.12 mg/kg/injection, schedule: Q04DX003 (ip), vehicle: Klucel (hydroxypropylcellulose) (HPC)): 94 % of control | T/C (dose: 6.25 mg/kg/injection, schedule: Q04DX003 (ip), vehicle: Klucel (hydroxypropylcellulose) (HPC)): 97 % of control

CC(C)(C)OC(=O)NN=C1CCC(C(C)(C)C)CC1 (stereo unspecified)
T/C [11]: 98 % of control | T/C [12]: 96 % of control | T/C [13]: 93 % of control

O=S(=O)(O)CCN1CCN(CCS(=O)(=O)O)CC1
T/C [5]: 95 % of control | T/C [14]: 95 % of control | T/C [15]: 101 % of control

FCc1nc2nc(Cl)c(Cl)nc2[nH]1
T/C (dose: 12.5 mg/kg/injection, schedule: Q01DX009 (ip), vehicle: saline): 100 % of control | T/C (dose: 25.0 mg/kg/injection, schedule: Q01DX009 (ip), vehicle: saline): 96 % of control | T/C (dose: 50.0 mg/kg/injection, schedule: Q01DX009 (ip), vehicle: saline): 88 % of control | T/C (dose: 100.0 mg/kg/injection, schedule: Q04DX003 (ip), vehicle: saline): 97 % of control | T/C (dose: 200.0 mg/kg/injection, schedule: Q04DX003 (ip), vehicle: saline): 97 % of control

COc1c2occc2c(OC)c2c(=O)cc(/C=C/c3cccnc3)oc12
T/C (dose: 100.0 mg/kg/injection, schedule: Q01DX001 (ip), vehicle: saline): 97 % of control | T/C (dose: 200.0 mg/kg/injection, schedule: Q01DX001 (ip), vehicle: saline): 101 % of control | T/C (dose: 400.0 mg/kg/injection, schedule: Q01DX001 (ip), vehicle: saline): 101 % of control
